pIC50: −log10 of the molar value.

In this experiment the target is b-Raf (V600E) (Homo sapiens (Human), UniProt P15056, V600E). The conditions noted are these: read-out: b-Raf IC-50; AlphaScreen, 60 min pre-incubation, 3 hours reaction. For orientation: Bead proximity is the source of the signal in Alpha formats.
Chain of b-Raf (V600E) (P15056 whole entry V600E): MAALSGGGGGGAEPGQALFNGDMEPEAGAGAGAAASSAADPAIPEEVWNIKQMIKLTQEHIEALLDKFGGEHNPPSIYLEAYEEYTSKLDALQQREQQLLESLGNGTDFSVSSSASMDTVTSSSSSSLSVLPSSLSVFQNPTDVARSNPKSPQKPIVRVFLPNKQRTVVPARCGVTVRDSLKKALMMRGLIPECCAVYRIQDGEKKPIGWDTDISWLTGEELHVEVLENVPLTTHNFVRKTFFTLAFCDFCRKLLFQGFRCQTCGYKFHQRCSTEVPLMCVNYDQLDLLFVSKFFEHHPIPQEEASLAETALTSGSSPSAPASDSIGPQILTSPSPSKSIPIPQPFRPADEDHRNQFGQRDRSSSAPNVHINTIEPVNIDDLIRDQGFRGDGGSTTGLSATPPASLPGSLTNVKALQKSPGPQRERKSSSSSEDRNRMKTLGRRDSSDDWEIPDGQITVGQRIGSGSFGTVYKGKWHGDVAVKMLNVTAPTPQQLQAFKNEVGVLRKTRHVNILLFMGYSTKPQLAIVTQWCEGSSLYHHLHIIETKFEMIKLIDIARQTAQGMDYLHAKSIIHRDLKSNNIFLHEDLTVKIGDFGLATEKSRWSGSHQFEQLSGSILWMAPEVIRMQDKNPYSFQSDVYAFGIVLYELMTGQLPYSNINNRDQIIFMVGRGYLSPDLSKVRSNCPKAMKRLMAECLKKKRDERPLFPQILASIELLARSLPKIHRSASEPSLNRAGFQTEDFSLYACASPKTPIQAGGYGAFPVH
As to `Cc1ccc(NC(=O)c2cccc(C(C)(C)S(C)(=O)=O)c2)cc1-c1cc(N2CCOCC2)n(C)c(=O)c1` [Example 494, N-(4-methyl-3-(1-methyl-6-morpholino-2-oxo-1,2-dihydropyridin-4-yl)phenyl)-3-(2-(methylsulfonyl)propan-2-yl)benzamide], the pIC50 was 7.77. The figure for `Cc1ccc(NC(=O)c2cnnc(C(F)(F)F)c2)cc1-c1cc(N2CCOCC2)n(C)c(=O)c1` [Example 495, N-(4-methyl-3-(1-methyl-6-morpholino-2-oxo-1,2-dihydropyridin-4-yl)phenyl)-6-(trifluoromethyl)pyridazine-4-carboxamide] is 8.35; for `Cc1ccc(NC(=O)c2cnnc(C3CC3)c2)cc1-c1cc(N2CCOCC2)n(C)c(=O)c1` [Example 496, 6-cyclopropyl-N-(4-methyl-3-(1-methyl-6-morpholino-2-oxo-1,2-dihydropyridin-4-yl)phenyl)pyridazine-4-carboxamide] it is 9.05.

Consider `Cc1ccc(NC(=O)c2cc(CN(C)C)cc(C(F)(F)F)c2)cc1-c1cc(N2CCOCC2)n(C)c(=O)c1` [Example 497, 3-((dimethylamino)methyl)-N-(4-methyl-3-(1-methyl-6-morpholino-2-oxo-1,2-dihydropyridin-4-yl)phenyl)-5-(trifluoromethyl)benzamide], for which the pIC50 is 8.55. The figure for `Cc1ncc(NC(=O)c2ccnc(C(C)(C)C#N)c2)cc1-c1cc(N2CCOCC2)n(C)c(=O)c1` [Example 499, 2-(2-cyanopropan-2-yl)-N-(1′,2-dimethyl-6′-morpholino-6′-oxo-1′,2′-dihydro-[3,4′-bipyridin]-5-yl)isonicotinamide] is 7.66; for `Cc1ncc(NC(=O)c2ccnc(C(F)(F)F)c2)cc1-c1cc(N2CCOCC2)n(C)c(=O)c1` [Example 500] it is 8.25; for `Cc1ncc(NC(=O)c2ccnc(C(C)(C)O)c2)cc1-c1cc(N2CCOCC2)n(C)c(=O)c1` [Example 501, N-(1′,2-dimethyl-6′-morpholino-2′-oxo-1′,2′-dihydro-[3,4′-bipyridin]-5-yl)-2-(2-hydroxypropan-2-yl)isonicotinamide] it is 7.49. For `CCn1cc(C(=O)Nc2cnc(C)c(-c3cc(N4CCOCC4)n(C)c(=O)c3)c2)cc(C(F)(F)F)c1=O` [Example 502, N-(1′,2-dimethyl-6′-morpholino-2′-oxo-1′,2′-dihydro-[3,4′-bipyridin]-5-yl)-1-ethyl-6-oxo-5-(trifluoromethyl)-1,6-dihydropyridine-3-carboxamide], the pIC50 was 7.70. The result for `Cc1ncc(NC(=O)c2ccccc2)cc1-c1cc(N2CCOCC2)n(C)c(=O)c1` [Example 503, N-(1′,2-dimethyl-6′-morpholino-2′-oxo-1′,2′-dihydro-[3,4′-bipyridin]-5-yl)benzamide] reads 6.70; that for `Cc1ncc(NC(=O)c2ccnc(S(C)(=O)=O)c2)cc1-c1cc(N2CCOCC2)n(C)c(=O)c1` [Example 504, N-(1′,2-dimethyl-6′-morpholino-2′-oxo-1′,2′-dihydro-[3,4′-bipyridin]-5-yl)-2-(methylsulfonyl)isonicotinamide], 7.68. The figure for `Cc1ncc(NC(=O)c2ccnc(C(C)C)c2)cc1-c1cc(N2CCOCC2)n(C)c(=O)c1` [Example 505, N-(1′,2-dimethyl-6′-morpholino-2′-oxo-1′,2′-dihydro-[3,4′-bipyridin]-5-yl)-2-isopropylisonicotinamide] is 8.24. Consider `Cc1ncc(NC(=O)c2cccc(C(F)F)c2)cc1-c1cc(N2CCOCC2)n(C)c(=O)c1` [Example 506, 3-(difluoromethyl)-N-(1′,2-dimethyl-6′-morpholino-2′-oxo-1′,2′-dihydro-[3,4′-bipyridin]-5-yl)benzamide], for which the pIC50 was 8.74. The result for `Cc1ncc(NC(=O)c2ccnc(C(C)(C)C)c2)cc1-c1cc(N2CCOCC2)n(C)c(=O)c1` [Example 507, 2-(tert-butyl)-N-(1′,2-dimethyl-6′-morpholino-2′-oxo-1′,2′-dihydro-[3,4′-bipyridin]-5-yl)isonicotinamide] reads 7.69.

For the origin of these results see patent publication US9694016B2 (Novartis AG, priority 2013, dated 2017).
